Measurements taken from patent US7998932B2, “Inhibition of angiogenesis by neutrophil alpha-defensins” (The Trustees of the University of Pennsylvania, priority 2003, dated 2011).

Test system: HUVEC
Assay: HUVEC proliferation by BrdU incorporation
Type: cell-based, human
Conditions: over a period of 24 hours; 10 ng/ml VEGF or 1 μM sphingosine-1-phosphate
Procedure: Cell proliferation: Endothelial cell proliferation was determined by measuring the incorporation of bromodeoxyuridine (BrdU). Endothelial cells were plated onto 96-well plates and incubated for 12 hours after which the medium was changed to MCDB-131 containing 0.05% FCS. Cells were then incubated for 24 hours in the absence or presence of stimuli or competitors. BrdU was added to the medium during the last 6 hours of incubation. The cells were then fixed and cell proliferation was quantified with a standardized calorimetric immunoassay (Roche Diagnostics, Mannheim, Germany) according to the manufacturer's instructions.

Row | Compound | increase of DNA synthesis in HUVEC
1 | CCCCCCCCCCCCC/C=C/[C@@H](O)[C@@H](N)COP(=O)(O)O [sphingosine-1-phosphate] | approximately two-fold
2 | VEGF | approximately two-fold
